Source: US12285012B2, “Compositions comprising pyridine carboxylate herbicides with acetolactate synthase (ALS) inhibitor herbicides” (Corteva Agriscience LLC, priority 2018, dated 2025)
Where “and” joins values, the source holds several entries; their conditions need not be identical. Equal values may be shown once.

Tests used:
Format in all cases: in vivo
[1] = system: rice (ORYSA, Oryza sativa); experiment: Greenhouse postemergence crop phytotoxicity; settings: Compound A 10 g/ha; safener mefenpyr-diethyl
Method: (§1) Seeds of the desired test plant species were planted in a 90:10% v/v (volume/volume) mixture of PRO-MIX® BX (Premier Tech Horticulture, Quakertown, PA, USA) and PROFILE® GREENS GRADE™ (Profile Products LLC, Buffalo Grove, IL, USA) planting mixture, which typically has a pH of 5.2 to 6.2 and an organic matter content of at least 50 percent, in plastic pots with a surface area of 103.2 square centimeters (cm^2). […] The plants were grown for 7-36 days (d) in a greenhouse with an approximate 14-hour (h) photo-period which was maintained at about 23° C. during the day and 22° C. during the night. Nutrients and water were added on a regular basis and supplemental lighting was provided with overhead metal halide 1000-Watt lamps as necessary. The plants were employed for testing when they reached the second or third true leaf stage.
(§2) Emulsifiable concentrates of each of each pyridine carboxylate herbicide (Compound A or Compound B) were prepared at 100 grams acid equivalent per liter (g ae/L). The emulsifiable concentrates also included a safener, cloquintocet-mexyl, at 120 grams active ingredient per liter (g ai/L), unless otherwise noted below. An aliquot of each emulsifiable concentrate was placed in a 25 mL glass vial and diluted with an aqueous mixture of 1.25% (v/v) ACTIROB® B esterified rapeseed oil (Bayer Crop Science, Research Triangle Park, NC, USA) or MSO® Concentrate with LECI-TECH® methylated soybean oil (Loveland Products, Loveland, CO, USA) to obtain concentrated stock solutions at the highest application rate for each herbicide, based upon a 12 milliliter (mL) application volume at a rate of 187 liters per hectare (L/ha). The concentrated stock solutions were further diluted with an aqueous mixture of 1.25% v/v ACTIROB® B or MSO® Concentrate with LECI-TECH® to obtain stock solutions at reduced application rates for each herbicide. Spray solutions of the herbicide combinations (Compound A or Compound B plus ALS herbicide) were prepared by adding weighed amounts or aliquots of the ALS herbicides to the stock solutions of Compound A or Compound B to form 12-mL spray solutions in two- or three-way combinations. […]
(§3) The treated plants and control plants were placed in a greenhouse as described above and watered by sub-irrigation to prevent wash-off of the test compounds. After 20-22 d, the condition of the test plants as compared with that of the control plants was determined visually and scored on a scale of 0 to 100 percent where 0 corresponds to no injury and 100 corresponds to complete kill.

maize (ZEAMX, Zea mays) = experiment: Greenhouse postemergence crop phytotoxicity; settings: Compound A 10 g/ha; safener mefenpyr-diethyl
Method: as §1, §2, §3

[2] = system: grain sorghum (SORVU, Sorghum vulgare); experiment: Greenhouse postemergence herbicidal effect; settings: Compound A 10 g/ha
In short: (§4)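 Greenhouse plants at the second–third true leaf received overhead sprays (187 L/ha) of herbicide mixtures containing safener and oil adjuvant. Percent control or crop injury was judged by eye 20–22 d later on a 0–100 scale.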

[3] = system: Italian ryegrass (LOLMU, Lolium multiflorum); experiment: Greenhouse postemergence herbicidal effect; settings: Compound A 10 g/ha; safener mefenpyr-diethyl
In short: as §4

[4] = system: small-flower flatsedge (CYPDI, Cyperus difformis); experiment: Greenhouse postemergence herbicidal effect; settings: Compound A 10 g/ha
In short: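 Visual rating, 0 (no injury) to 100% (complete kill), taken 20–22 d after treatment relative to solvent-sprayed controls. Pyridine carboxylate (g ae/ha) combined with ALS herbicide (g ai/ha), applied by track sprayer at 187 L/ha with 1.25% v/v oil adjuvant and cloquintocet-mexyl safener.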

[5] = system: nutsedge (CYPES, Cyperus esculentus); experiment: Greenhouse postemergence herbicidal effect
In short: as §4

[6] = system: spring rape (BRSNN, Brassica napus); experiment: Greenhouse postemergence herbicidal effect
In short: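 Injury was rated visually after 20-22 d on a 0 (none) to 100% (complete kill) scale relative to solvent-sprayed controls, with sub-irrigation to avoid wash-off. Rates were given in g ae/ha or g ai/ha depending on component.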

[7] = Compound A 10 g/ha, safener mefenpyr-diethyl

N#CCOC(=O)c1nc(-c2ccc3cc[nH]c3c2F)c(F)c(N)c1Cl [Compound A, cyanomethyl 4-amino-3-chloro-5-fluoro-6-(7-fluoro-1H-indol-6-yl)pyridine-2-carboxylate]
% visual injury, Obs [1]: 5%
ORYSA % visual injury Obs [1]: 5%
% visual injury, Obs (maize (ZEAMX, Zea mays)): 5%
ZEAMX % visual injury Obs (maize (ZEAMX, Zea mays)): 5%
% visual injury [2]: 0%
% visual injury, Obs ([2]; safener mefenpyr-diethyl): 10%
SORVU % visual injury Obs ([2]; safener mefenpyr-diethyl): 10%
% visual injury, Obs [3]: 10%
LOLMU % visual injury Obs [3]: 10%
% visual injury Obs [4]: 72%
% visual injury, Obs ([5]; 10 g/ha): 45%
% visual injury ([5]; Compound A 10 g/ha): 8%
% visual injury, Obs [5, 7]: 28%
CYPES % visual injury Obs [5, 7]: 28%
% visual injury, Obs ([6]; 10 g/ha): 73% and 70% and 60%
% visual injury, Obs ([6]; BRSNN, Compound A 10 g/ha): 60%
Obs % visual injury ([6]; BRSNN, Compound A 10 g/ha): 55%
Obs % visual injury ([6]; BRSNN, Compound A 10 g/ha (Table 65)): 55%
% visual injury ([6]; Compound A 10 g/ha): 65%
% visual injury Obs ([6]; Compound A 10 g/ha): 60%
% visual injury, Obs ([6]; Compound A 10 g/ha): 55%
BRSNN % visual injury Obs ([6]; Compound A 10 g/ha (Examples 62-63)): 55%
% visual injury, Obs [6, 7]: 78%
BRSNN % visual injury Obs [6, 7]: 78%
